Laboratory results taken from patent publication US20100168136A1, “ALKYLSULFONE DERIVATIVES” (DAIICHI SANKYO COMPANY, LIMITED, priority 2007, published 2010).

Tests used:
[1] = system: production of β-amyloid protein (Aβ) by E35 cells (human glioma H4 cells transfected with APP751 gene); test: Screening system using cells: inhibition of production/secretion of β-amyloid protein (Aβ sandwich ELISA of culture supernatant); assay type: cell-based; conditions: 24 hours with compound, Aβ in supernatant by ELISA, read-out: Activity (EC50, concentration at which production of Aβ is inhibited by 50%)
Procedure: Inhibitory activity of compounds against production of β-amyloid protein was measured by quantitative determination of the amount of β-amyloid protein (Aβ) secreted into the culture medium by sandwich enzyme-linked immunosorbent assay (ELISA) method, using E35 cells prepared by transfecting APP751 gene, which is a human wild type β-amyloid protein precursor protein gene, into human glioma cells (H4 cells).
That is, E35 cells were inoculated into a 96-well plate followed by cultivation in an incubator equilibrated with 5% carbon dioxide at 37° C., using Dulbecco's Modified Eagle's Medium supplemented with inactivated 10% fetal bovine serum as the medium. Test compounds dissolved in DMSO solution were added 24 hours after inoculation. Test compounds in DMSO solution were prepared to have a 2000-fold concentration of the final concentration, so that the DMSO concentration in the medium becomes 0.05%. After further cultivation for 24 hours, supernatant was collected, and was added to a 96-well plate for ELISA fixed with monoclonal antibody 25-1 against Aβ. Incubation was carried out at 4° C. for 16-20 hours. The plate was washed with phosphate buffer (pH 7.4), followed by addition of biotinylated monoclonal antibody MA32-40 against Aβ, and the plate was allowed to stand at 4° C. for 2 hours. After the plate was washed with phosphate buffer again, streptavidin conjugated alkaline phosphatase was added. Biotin was allowed to conjugate with streptavidin, and then the plate was washed with phosphate buffer. Blue Phos (KPL Inc.) was added to the plate, and then after incubation for an appropriate period of time, absorbance was measured for each of the wells. The amount of Aβ contained in the supernatant of conditioned medium was obtained from a calibration curve which was prepared separately. The concentration at which production of Aβ is inhibited by 50% (EC50), when compared with the control cells without the addition of the compound, was calculated. Here, 25-1 antibody and MA32-40 antibody used in ELISA are mouse monoclonal antibodies derived from hybridoma cell clone cell lines, which specifically recognize each antigen which was prepared and selected in accordance with a standard method by using Aβ25-35 and Aβ1-8 as antigens, respectively.
Results for the evaluation made by the aforementioned assay with respect to compound (I) of the present invention are shown in Table 1. Notation of ++++ is provided when EC50 is 5 nM or lower, +++ when 5-50 nM, and ++ when 50-500 nM.

| melting point | Structure (SMILES) | EC50 [1] [µM] |
| --- | --- | --- |
| 161 to 161.5 °C | Cc1cc(C(=O)NCO)ncc1C(c1c(F)ccc(F)c1F)S(=O)(=O)CCC(C)(F)F (stereo not drawn) | – |
| 202 to 204 °C | CCCS(=O)(=O)C(c1cnc(C(N)=O)cc1C)c1c(F)ccc(F)c1F (stereo not drawn) | – |
| 143 to 144 °C | Cc1cc(C(N)=O)ncc1C(c1c(F)ccc(F)c1F)S(=O)(=O)CCC(C)(C)C (stereo not drawn) | – |
| 240 to 241 °C | Cc1cc(C(N)=O)ncc1C(c1c(F)ccc(F)c1F)S(=O)(=O)CC(C)C (stereo not drawn) | – |
| 126 to 128 °C | Cc1cc(C(=O)NCO)ncc1C(c1c(F)ccc(F)c1F)S(=O)(=O)CCC(F)(F)C(F)(F)F (stereo not drawn) | – |
| 97 to 98 °C | Cc1cc(C(N)=O)ncc1C(SCCC=C(F)F)c1c(F)ccc(F)c1F (stereo not drawn) | – |
| 170 to 172 °C | Cc1cc(C(N)=O)ncc1C(c1c(F)ccc(F)c1F)S(=O)(=O)CCC(F)=C(F)F (stereo not drawn) | – |
| 160 to 161 °C | Cc1cc(C(N)=O)ncc1C(c1c(F)ccc(F)c1F)S(=O)(=O)CC(F)(F)C(F)F (stereo not drawn) | – |
| 194 to 196 °C | Cc1cc(C(N)=O)ncc1C(c1c(F)ccc(F)c1F)S(=O)(=O)CC(C(F)(F)F)C(F)(F)F (stereo not drawn) | – |
| 191.5 to 192 °C | Cc1cc(C(N)=O)ncc1C(c1c(F)ccc(F)c1F)S(=O)(=O)CCC(F)F (stereo not drawn) | – |
| 205 to 207 °C | Cc1cc(C(N)=O)ncc1C(c1c(F)ccc(F)c1F)S(=O)(=O)CC1CC(F)(F)C1 (stereo not drawn) | – |
| 85 to 87 °C | Cc1cc(C(=O)O)ncc1C(c1c(F)ccc(F)c1F)S(=O)(=O)CCC(F)(F)F (stereo not drawn) | – |
| 203 to 204 °C | Cc1cc(C(=O)N(C)C)ncc1C(c1c(F)ccc(F)c1F)S(=O)(=O)CCC(F)(F)F (stereo not drawn) | – |
| 201 to 203 °C | Cc1cc(C(N)=O)ncc1C(c1c(F)ccc(F)c1F)S(=O)(=O)CCCC(F)(F)F (stereo not drawn) | – |
| 194 to 196 °C | Cc1cc(C(N)=O)ncc1C(c1c(F)ccc(F)c1F)S(=O)(=O)CCCF (stereo not drawn) | – |

The remaining lines, values behind:

| Structure (SMILES) | melting point | EC50 [1] [µM] |
| --- | --- | --- |
| Cc1cc(C(N)=O)ncc1C(c1c(F)ccc(F)c1F)S(=O)(=O)CC1CC1 (stereo not drawn) | 222 to 223 °C | – |
| Cc1cc(C(N)=O)ncc1C(c1c(F)ccc(F)c1F)S(=O)(=O)CC1CCC1 (stereo not drawn) | 214 to 215 °C | – |
| Cc1cc(C(=O)NCCO)ncc1C(c1c(F)ccc(F)c1F)S(=O)(=O)CCC(F)(F)F (stereo not drawn) | 146 to 147 °C | – |
| Cc1cc(C(N)=O)ncc1C(c1c(F)ccc(F)c1F)S(=O)(=O)CCC(F)(F)F (stereo not drawn) [Example 3, 4-Methyl-5-[(2,3,6-trifluorophenyl)[(3,3,3-trifluoropropyl)sulfonyl]methyl]pyridine-2-carboxamide] | 190 to 191 °C | 0.05 to 0.5 |
| Cc1cc(C(=O)NCO)ncc1C(c1c(F)ccc(F)c1F)S(=O)(=O)CCC(F)(F)F (stereo not drawn) [Example 4, N-(Hydroxymethyl)-4-methyl-5-[(2,3,6-trifluorophenyl)[(3,3,3-trifluoropropyl)sulfonyl]methyl]pyridine-2-carboxamide] | 146 to 148 °C | 0.005 to 0.05 |
| Cc1cc(C(N)=O)ncc1C(c1c(F)ccc(F)c1F)S(=O)(=O)CCC(C)(F)F (stereo not drawn) [Example 10, 5-[[(3,3-Difluorobutyl)sulfonyl](2,3,6-trifluorophenyl)methyl]-4-methylpyridine-2-carboxamide] | 165 to 166 °C | 0.05 to 0.5 |
| CCCCS(=O)(=O)C(c1cnc(C(N)=O)cc1C)c1c(F)ccc(F)c1F (stereo not drawn) [Example 15, 5-[(Butylsulfonyl)(2,3,6-trifluorophyenyl)methyl]-4-methylpyridine-2-carboxamide] | 203 to 204 °C | 0.05 to 0.5 |
| Cc1cc(C(N)=O)ncc1C(c1c(F)ccc(F)c1F)S(=O)(=O)CCC(Cl)(Cl)Cl (stereo not drawn) [Example 18, 4-Methyl-5-[[(3,3,3-trichloropropyl)sulfonyl](2,3,6-trifluorophenyl)methyl]pyridine-2-carboxamide] | 173 to 175 °C | 0.05 to 0.5 |
| Cc1cc(C(N)=O)ncc1C(c1c(F)ccc(F)c1F)S(=O)(=O)CCC(F)(F)C(F)(F)F (stereo not drawn) [Example 19, 4-Methyl-5-[[(3,3,4,4,4-pentafluorobutyl)sulfonyl](2,3,6-trifluorophenyl)methyl]pyridine-2-carboxamide] | 155 to 156 °C | 0.005 to 0.05 |
| Cc1cc(C(N)=O)ncc1C(c1c(F)ccc(F)c1F)S(=O)(=O)CCCCl (stereo not drawn) [Example 30, 5-[[(3-Chloropropyl)sulfonyl](2,3,6-trifluorophenyl)methyl]-4-methylpyridine-2-carboxamide] | 197 to 199 °C | 0.05 to 0.5 |
| Cc1cc(C(N)=O)ncc1C(c1c(F)ccc(F)c1F)S(=O)(=O)CCC(F)(F)Cl (stereo not drawn) [Example 34, 5-[[(3-Chloro-3,3-difluoropropyl)sulfonyl](2,3,6-trifluorophenyl)methyl]-4-methylpyridine-2-carboxamide] | 181 to 183 °C | 0.005 to 0.05 |
| Cc1cc(C(=O)NCO)ncc1C(c1c(F)ccc(F)c1F)S(=O)(=O)CCC(F)(F)Cl (stereo not drawn) [Example 35, 5-[[(3-Chloro-3,3-difluoropropyl)sulfonyl](2,3,6-trifluorophenyl)methyl]-N-(hydroxymethyl)-4-methylpyridine-2-carboxamide] | 150 to 152 °C | 0.005 to 0.05 |
| Cc1cc(C(N)=O)ncc1C(c1c(F)ccc(F)c1F)S(=O)(=O)CC=C(F)F (stereo not drawn) [Example 37, 5-[[(3,3-Difluoroprop-2-en-1-yl)sulfonyl](2,3,6-trifluorophenyl)methyl]-4-methylpyridine-2-carboxamide] | 171 to 172 °C | 0.05 to 0.5 |
| NC(=O)c1cc(C(c2c(F)ccc(F)c2F)S(=O)(=O)CCC(F)(F)F)c(Cl)cn1 (stereo not drawn) [Example 45, 5-Chloro-4-[(2,3,6-trifluorophenyl)[(3,3,3-trifluoropropyl)sulfonyl]methyl]pyridine-2-carboxamide] | 237 to 239 °C | 0.05 to 0.5 |
| Nc1cc(C(c2c(F)ccc(F)c2F)S(=O)(=O)CCC(F)(F)F)c(Cl)cn1 (stereo not drawn) [Example 48, 5-Chloro-4-[(2,3,6-trifluorophenyl)[(3,3,3-trifluoropropyl)sulfonyl]methyl]pyridin-2-amine] | 155 to 159 °C | 0.005 to 0.05 |
| O=c1cc(O)nc2cc(C(c3c(F)ccc(F)c3F)S(=O)(=O)CCC(F)(F)F)c(Cl)cn12 (stereo not drawn) [Example 49, 7-Chloro-2-hydroxy-8-[(2,3,6-trifluorophenyl)[(3,3,3-trifluoropropyl)sulfonyl]methyl]-4H-pyrido[1,2-a]pyrimidin-4-one] | 264 °C (dec.) | 0.005 to 0.05 |
| Nc1cc(=O)n2cc(Cl)c(C(c3c(F)ccc(F)c3F)S(=O)(=O)CCC(F)(F)F)cc2n1 (stereo not drawn) [Example 51, 2-Amino-7-chloro-8-[(2,3,6-trifluorophenyl)[(3,3,3-trifluoropropyl)sulfonyl]methyl]-4H-pyrido[1,2-a]pyrimidin-4-one] | 247 °C (dec.) | ≤ 0.005 |
| O=c1[nH]nc2cc(C(c3c(F)ccc(F)c3F)S(=O)(=O)CCC(F)(F)F)c(Cl)cn12 (stereo not drawn) [Example 54, 6-Chloro-7-[(2,3,6-trifluorophenyl)[(3,3,3-trifluoropropyl)sulfonyl]methyl][1,2,4]triazolo[4,3-a]pyridin-3(2H)-one] | 209 to 211 °C | 0.005 to 0.05 |
